Data from patent US20110300129A1, “SYSTEMS AND METHODS FOR ENHANCING VACCINE EFFICACY” (UNIVERSITY OF ROCHESTER, priority 2008, published 2011).

Tests used:
purified human B cells = test: B cell proliferation, CFSE cell division by flow cytometry; assay type: cell-based; conditions: CpG-activated B cells, 5 days; for cell division compared to vehicle control: Rosiglitazone 0.5 μM, 15d-PGJ2 0.2 μM
Experimental: Proliferation: For cell division, a CellTrace™ CFSE Cell Proliferation Kit (Invitrogen, Carlsbad, Calif.) was used according to the manufacturer's protocol. Briefly, cells were labeled with 0.5 μM CFSE (carboxyfluorescein diacetate succinimidyl ester) for 15 minutes at 37° C., followed by two washes with 1×PBS, and then resuspended in RPMI culture media containing 10% FBS. Cells were then plated at a density of 1×10^5 cells/well in a 96-round bottom plate. Five days later, cells were acquired using a BD Biosciences FACS Calibur flow cytometer and analyzed using FlowJo software (Tree Star, Inc. Ashland, Oreg.).
Five days after activation, cells were analyzed by flow cytometry. […] FIG. 2B illustrates the percent of cell division for three different B cell donors.

[1] = test system: purified human B lymphocytes; test: Antibody production, IgM and IgG ELISA of B cell supernatants; assay type: cell-based
Experimental: Antibody Production: Purified human B lymphocytes (5×10^5 cells/ml) were cultured in 96-well round-bottom microtiter plates. […] Pilot experiments were performed to optimize the doses of PPARγ and RXR ligands. […] Supernatants were harvested and the concentrations of IgM and IgG were analyzed using human-specific ELISAs (Bethyl Laboratories).

peripheral blood B cells [2] = test: Plasma cell differentiation, CD38/CD27 surface labeling by flow cytometry; assay type: cell-based, human; conditions: for percentage of CD38-expressing naive B cells (CD38highCD27low) / percentage of CD38highCD27high B cells (plasma cells): 9-cis-RA 100 nM; for percentage of CD38highCD27high B cells (plasma cells): Rosiglitazone 0.5 μM, 15d-PGJ2 0.2 μM
Experimental: Intracellular and Surface Labeling: B cells were incubated with mouse anti-human CD19-APC (BD Biosciences), anti-human CD38-PE (BD Biosciences) and/or anti-human CD27-APC (BD Biosciences) in cold PBS with sodium azide (0.02%) and BSA (0.3%) for 20 min at 20° C. COX-2 intracellular staining was performed as described previously (Padilla et al., “Human B Lymphocytes and B Lymphomas Express PPAR-γ and Are Killed by PPAR-γ Agonists,” Clin Immunol 103:22-33 (2002), which is hereby incorporated by reference in its entirety). All samples were acquired on a BD Biosciences FACS Calibur flow cytometer and analyzed using FlowJo software (Tree Star, Inc. Ashland, Oreg.).
Peripheral-blood B lymphocytes include both naive and memory B cell populations. These two B cell subsets can be distinguished based on CD27 expression, which is a marker of memory B cells (Agematsu et al., “CD27: A Memory B-cell Marker,” Immunol Today 21:204-206 (2000), each of which is hereby incorporated by reference in its entirety).

human B cells = test: B cell viability (7-AAD incorporation, cell size, 3H-thymidine incorporation); assay type: cell-based; conditions: Rosiglitazone 0.5 μM, 15d-PGJ2 0.2 μM; pilot experiments
PPARγ = molecular target: T1, PPARγ (Homo sapiens, UniProt P37231); test: PPARγ gene reporter analysis (PPRE-luciferase) in transfected B cells; assay type: cell-based
T1 construct: normal B cells were transfected with a PPARγ luciferase reporter construct; endogenous in cells
T1 sequence (P37231 1-505): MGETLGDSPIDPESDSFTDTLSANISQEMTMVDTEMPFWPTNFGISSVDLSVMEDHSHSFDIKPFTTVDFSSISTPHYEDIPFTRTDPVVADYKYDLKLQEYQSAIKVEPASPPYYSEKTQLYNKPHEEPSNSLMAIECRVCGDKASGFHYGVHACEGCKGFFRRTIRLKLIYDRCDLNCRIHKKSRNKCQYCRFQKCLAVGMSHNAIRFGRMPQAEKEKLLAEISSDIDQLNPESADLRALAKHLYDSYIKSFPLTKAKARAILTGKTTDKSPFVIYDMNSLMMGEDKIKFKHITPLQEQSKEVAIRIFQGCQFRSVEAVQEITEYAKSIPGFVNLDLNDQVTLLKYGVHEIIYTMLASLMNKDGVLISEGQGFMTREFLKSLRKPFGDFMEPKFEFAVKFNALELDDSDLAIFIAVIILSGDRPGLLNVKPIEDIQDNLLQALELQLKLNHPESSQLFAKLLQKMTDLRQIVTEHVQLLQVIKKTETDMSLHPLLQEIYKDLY
Experimental: Twenty-four hours after treatments, luciferase activity was assayed using the Promega Luciferase Assay System (Madison, Wis.). Relative light units (RLU) were determined with a Lumicount Microplate Luminometer (Packard Instrument Co., Meriden, Conn., USA). Relative light units (RLU) were normalized to transfection efficiency that was monitored by cotransfection of GFP expression vector.
To test whether the PPARγ ligand concentrations used here activated PPARγ, normal B cells were transfected with a PPARγ luciferase reporter construct.

[3] = test system: Cox-2 expression in B cells; test: Cox-2 intracellular staining of CD19+ B cells, flow cytometry; assay type: cell-based, human; conditions: for percentage of B cells which express Cox-2: CpG 1 μg/ml, Rosiglitazone 0.5 μM, 15d-PGJ2 0.2 μM, 3% untreated
Experimental: Intracellular and Surface Labeling: B cells were incubated with mouse anti-human CD19-APC (BD Biosciences), anti-human CD38-PE (BD Biosciences) and/or anti-human CD27-APC (BD Biosciences) in cold PBS with sodium azide (0.02%) and BSA (0.3%) for 20 min at 20° C. […] All samples were acquired on a BD Biosciences FACS Calibur flow cytometer and analyzed using FlowJo software (Tree Star, Inc. Ashland, Oreg.).
Therefore, the levels of Cox-2 expression were evaluated following PPARγ ligand treatment.

[4] = test system: BLIMP-1 expression in B cells; test: BLIMP-1 expression in B cells, Western blot densitometry; assay type: cell-based, human; conditions: for BLIMP-1 induction over CpG-treated cells (densitometry): CpG 1 μg/ml plus ligand, 72 hrs
Experimental: (§1) Western Blots: Whole cell extracts were collected using ELB buffer (50 mM HEPES (pH 7), 250 mM NaCl, 0.1% Nonidet P-40, 5 mM EDTA, 10 mM NaF, 0.1 mM Na3VO4, 50 μM ZnCl2, supplemented with 0.1 mM PMSF, 1 mM DTT, and a mixture of protease and phosphatase inhibitors) and total protein was quantified using bicinchoninic acid protein assay (BCA assay kit) (Pierce, Rockford, Ill.). Twenty-five micrograms of protein was electrophoresed on 8-16% Precise™ protein gels (Pierce, Rockford, Ill.) and transferred to polyvinylidene fluoride (PVDF) membrane (Millipore, Billerica, Mass.). The membranes were analyzed for immunoreactivity with the indicated primary antibody, washed and then incubated with an appropriate horseradish peroxidase-conjugated secondary antibody. The membranes were visualized by chemiluminescence using an ECL kit (Pierce, Rockford, Ill.).
Lastly, BLIMP-1 expression was evaluated. BLIMP-1 is a transcription factor important in B cell differentiation (Shaffer et al., “Blimp-1 Orchestrates Plasma Cell Differentiation by Extinguishing the Mature B Cell Gene Expression Program,” Immunity 17:51-62 (2002), which is hereby incorporated by reference in its entirety). […] When B cells were treated with a combination of CpG and PPARγ ligands, there was a further increase in BLIMP-1 expression.

peripheral blood B cells [5] = conditions: Morikawa et al. 2005; cited from earlier work
[6] = test system: PPARγ expression in human B cells; test: PPARγ expression in activated B cells, Western blot densitometry; assay type: cell-based; conditions: 48 hr; 2 μg/ml anti-IgM Ab, 1 μg/ml CpG; three donors; 'up to'
From the text: B Cell Isolation: Normal B lymphocytes were isolated from a unit of whole blood from healthy donors with ethical permission from the Research Subjects Review Board at the University of Rochester. The isolation of normal B lymphocytes has been previously described (Ryan, et al., “Activated Human B Lymphocytes Express Cyclooxygenase-2 and Cyclooxygenase Inhibitors Attenuate Antibody Production,” J Immunol 174:2619-2626 (2005), which is hereby incorporated by reference in its entirety). Briefly, buffy coats were obtained from whole blood and peripheral blood mononuclear cells (PBMCs) were obtained using Ficoll-Paque (Amersham Biosciences AB) gradient centrifugation. […] B lymphocyte purity was >98% CD19 positive (as determined by flow cytometry, data not shown). […]
as §1, with “Twenty-five micrograms of protein was electrophoresed on 8-16% Precise™ protein gels (Pierce, Rockford, Ill.) and transferred to polyvinylidene fluoride (PVDF) membrane (Millipore, Billerica, Mass.).” left out, “The membranes were visualized by chemiluminescence using an ECL kit (Pierce, Rockford, Ill.).” left out

[7] = test system: PPARγ expression in human B cells; test: Intracellular PPARγ staining of B cells, flow cytometry; assay type: cell-based; conditions: activated B cells
Experimental: For intracellular staining for PPARγ, untreated or activated B lymphocytes were surface stained with 20 μl of APC anti-human CD19 mAb (BD Biosciences) for 30 minutes in the dark at room temperature (RT). Cells were then fix and permeabilized with BD Cytofix/Cytoperm Fixation/Permeabilization Kit following the manufacturer's instructions. A FITC-Conjugated anti-human PPARγ antibody was used at a 1/100 dilution. An equal amount of IgG1 FITC mAb was used as an isotype control.

[8] = addition of SC-58125 10 μM, 6 days

For `CC1=C(/C=C/C(C)=C\C=C\C(C)=C\C(=O)O)C(C)(C)CCC1` [9-cis-RA, 9-cis-retinoic acid], the “percentage of dividing cells” value (purified human B cells; ligand alone, 9-cis-RA 100 nM) was “increased the percentage of dividing cells”, the “IgG production over vehicle control” value ([1]; CpG-activated cells, 6 days) was “significantly induced” and the “IgM production over vehicle control” value ([1]; CpG-activated cells, 6 days) was “significantly induced”. The “CD38highCD27high cells, fold over vehicle” value (peripheral blood B cells [2]; CpG 1 μg/ml, 5 days) was roughly 1.7 fold, the “CD38highCD27low cells, fold vs. CpG plus vehicle” value (peripheral blood B cells [2]; CpG 1 μg/ml, 5 days) was roughly 3.5 fold and the “percentage of CD38-expressing naive B cells (CD38highCD27low)” value (peripheral blood B cells [2]; CpG 1 μg/ml, 5 days) was 30.2±5.5%. For the same compound, the “percentage of CD38highCD27high B cells (plasma cells)” value (“percentage … (plasma cells)” below) (peripheral blood B cells [2]; CpG 1 μg/ml, 5 days) was 10.3±1.9%.

For `CCCCCC=CC=C1C(=O)C=C[C@@H]1CC=CCCCC(=O)O` [15d-PGJ2, 15-deoxy-Δ^12,14 Prostaglandin J2], the “cell division compared to vehicle control” value (purified human B cells) was “increased cell division”, the cell viability (human B cells) was “did not adversely affect cell viability” and the “luciferase activity (PPRE reporter)” value (PPARγ; CpG-activated B cells, 24 h treatment, Rosiglitazone 0.5 μM, 15d-PGJ2 0.2 μM) was “increased luciferase activity”. For the same compound, the “CD38highCD27high cells, fold over vehicle” value (peripheral blood B cells [2]; CpG 1 μg/ml, 5 days) was roughly 2 fold, the “percentage … (plasma cells)” value (peripheral blood B cells [2]; CpG 1 μg/ml, 5 days) was 12.5±1.4% and the “percentage of B cells which express Cox-2” value [3] was 43%. The “BLIMP-1 induction over CpG-treated cells (densitometry)” value [4] was roughly 9 fold.

In the case of `CC1=C(/C=C/C(C)=C/C=C/C(C)=C/C(=O)O)C(C)(C)CCC1` [ATRA, all-trans-retinoic acid], the CD38 expression (peripheral blood B cells [5]) is listed as “induces CD38 expression” and the antibody production (peripheral blood B cells [5]) is listed as “increases antibody production”.

For `O=C(Nc1ccccc1)c1cc([N+](=O)[O-])ccc1Cl` [GW9662], the “effects of PPARγ ligands on IgG production” value ([1]; with GW9662 500 nM, CpG, 6 days) was “abolished”, the “PPARγ ligand-induced CD38 expression in memory B cells” value (peripheral blood B cells [2]; with GW9662 500 nM, CpG) was “attenuated” and the “expression of BLIMP-1 compared to CpG alone” value ([4]; CpG and GW9662 500 nM) was “decrease”. For the same compound, the “increase in BLIMP-1 by Rosiglitazone and 15d-PGJ2” value ([4]; CpG-activated B cells, with GW9662 500 nM) was “dramatically attenuated”.

In the case of `CN(CCOc1ccc(CC2SC(=O)NC2=O)cc1)c1ccccn1` (centres unmarked) [Rosiglitazone, 5-[4-[2-[N-methyl-N-(2-pyridyl)amino]ethoxy]benzyl]thiazolidine-2,4-dione], the “cell division compared to vehicle control” value (purified human B cells) is reported as “increased cell division”, the cell viability (human B cells) is reported as “did not adversely affect cell viability” and the “percentage … (plasma cells)” value (peripheral blood B cells [2]; CpG 1 μg/ml, 5 days) is reported as 10.7±1.6%. The “percentage of B cells which express Cox-2” value [3] was 36% and the “BLIMP-1 induction over CpG-treated cells (densitometry)” value [4] was roughly 6 fold.

With `CS(=O)(=O)c1ccc(-n2nc(C(F)(F)F)cc2-c2ccc(F)cc2)cc1` [SC-58125] the “IgG production of CpG-stimulated B cells” value [1, 8] was “significantly reduced”, the “IgM production of CpG-stimulated B cells” value [1, 8] was “significantly reduced” and the “increased antibody production upon PPARγ ligand treatment” value ([1]; addition of SC-58125 10 μM, CpG, 6 days) was “significantly reduced”.

In the case of “CpG: CpG oligodeoxynucleotides 2395 5′-TCGTCGTTTTCGGCGCGCGCCG-3′ (SEQ ID NO: 1), a TLR-9 ligand, mitogen (chemistry not given here)”, the “PPARγ protein levels increase compared to untreated B cells (densitometry of Western blot)” value [6] is reported as no more than 14.3 fold, the “intracellular PPARγ levels compared to untreated B cells” value [7] is reported as “increased” and the IgG production ([1]; CpG 1 μg/ml alone, 5 days) is reported as “significantly induced”. The IgM production ([1]; CpG 1 μg/ml alone, 5 days) was “significantly induced”, the “PPARγ activity (PPRE reporter)” value (PPARγ; CpG-activated B cells with no exogenous PPARγ ligand) was “did not induce PPARγ activity” and the “percentage of CD38-expressing naive B cells (CD38highCD27low)” value (peripheral blood B cells [2]; CpG 1 μg/ml, 5 days) was 9.1±0.6%. The “percentage … (plasma cells)” value (peripheral blood B cells [2]; CpG 1 μg/ml, 5 days) was 7.0±1.7%, the “percentage of B cells which express Cox-2” value [3] was 27% and the “levels of Cox-2 expression (mean fluorescence intensity)” value ([3]; FIG. 6B) was “increased the levels of Cox-2 expression”. The “BLIMP-1 protein levels compared to untreated or freshly isolated B cells” value ([4]; CpG treatment) was “significantly upregulated”.
